# What was measured:
# [1] = molecular target: T1, SNF-related serine/threonine-protein kinase (Homo sapiens) (UniProt Q9NRH2); experiment: Selectivity interaction (ActivX KiNativ screen (kinase selectivity in THP-1 cell lysates)) EUB0000639a SNRK; type: subcellular; settings: lysate, at 5 µM
# T1 sequence (whole entry): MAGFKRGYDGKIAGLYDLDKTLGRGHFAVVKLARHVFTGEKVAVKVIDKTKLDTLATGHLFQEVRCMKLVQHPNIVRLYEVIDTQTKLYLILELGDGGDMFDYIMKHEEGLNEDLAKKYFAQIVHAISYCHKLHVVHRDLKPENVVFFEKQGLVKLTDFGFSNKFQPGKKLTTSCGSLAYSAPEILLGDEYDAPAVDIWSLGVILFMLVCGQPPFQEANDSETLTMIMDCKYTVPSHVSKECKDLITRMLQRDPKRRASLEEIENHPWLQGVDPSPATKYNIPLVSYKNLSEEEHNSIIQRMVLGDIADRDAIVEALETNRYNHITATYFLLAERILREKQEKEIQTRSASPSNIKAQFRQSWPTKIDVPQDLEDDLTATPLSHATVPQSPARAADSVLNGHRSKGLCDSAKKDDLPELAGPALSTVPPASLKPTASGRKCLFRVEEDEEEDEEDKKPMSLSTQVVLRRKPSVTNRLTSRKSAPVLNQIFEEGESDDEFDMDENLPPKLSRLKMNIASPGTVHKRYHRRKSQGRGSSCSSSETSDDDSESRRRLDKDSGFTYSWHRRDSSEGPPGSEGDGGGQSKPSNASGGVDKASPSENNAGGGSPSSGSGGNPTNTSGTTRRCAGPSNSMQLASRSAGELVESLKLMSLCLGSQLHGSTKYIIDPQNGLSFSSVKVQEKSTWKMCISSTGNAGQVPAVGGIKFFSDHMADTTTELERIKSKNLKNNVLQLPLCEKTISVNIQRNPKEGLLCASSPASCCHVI
# [2] = molecular target: Myosin light chain kinase, smooth muscle (Homo sapiens, UniProt Q15746); experiment: Selectivity interaction (KinomeScan (DiscoverX)) EUB0000595a MYLK; settings: at 10 µM
# [3] = molecular target: T2, Ephrin type-B receptor 1 (Homo sapiens) (UniProt P54762); experiment: Selectivity interaction (KinomeScan (DiscoverX)) EUB0000229b EPHB1; settings: at 10 µM
# T2 sequence (whole entry): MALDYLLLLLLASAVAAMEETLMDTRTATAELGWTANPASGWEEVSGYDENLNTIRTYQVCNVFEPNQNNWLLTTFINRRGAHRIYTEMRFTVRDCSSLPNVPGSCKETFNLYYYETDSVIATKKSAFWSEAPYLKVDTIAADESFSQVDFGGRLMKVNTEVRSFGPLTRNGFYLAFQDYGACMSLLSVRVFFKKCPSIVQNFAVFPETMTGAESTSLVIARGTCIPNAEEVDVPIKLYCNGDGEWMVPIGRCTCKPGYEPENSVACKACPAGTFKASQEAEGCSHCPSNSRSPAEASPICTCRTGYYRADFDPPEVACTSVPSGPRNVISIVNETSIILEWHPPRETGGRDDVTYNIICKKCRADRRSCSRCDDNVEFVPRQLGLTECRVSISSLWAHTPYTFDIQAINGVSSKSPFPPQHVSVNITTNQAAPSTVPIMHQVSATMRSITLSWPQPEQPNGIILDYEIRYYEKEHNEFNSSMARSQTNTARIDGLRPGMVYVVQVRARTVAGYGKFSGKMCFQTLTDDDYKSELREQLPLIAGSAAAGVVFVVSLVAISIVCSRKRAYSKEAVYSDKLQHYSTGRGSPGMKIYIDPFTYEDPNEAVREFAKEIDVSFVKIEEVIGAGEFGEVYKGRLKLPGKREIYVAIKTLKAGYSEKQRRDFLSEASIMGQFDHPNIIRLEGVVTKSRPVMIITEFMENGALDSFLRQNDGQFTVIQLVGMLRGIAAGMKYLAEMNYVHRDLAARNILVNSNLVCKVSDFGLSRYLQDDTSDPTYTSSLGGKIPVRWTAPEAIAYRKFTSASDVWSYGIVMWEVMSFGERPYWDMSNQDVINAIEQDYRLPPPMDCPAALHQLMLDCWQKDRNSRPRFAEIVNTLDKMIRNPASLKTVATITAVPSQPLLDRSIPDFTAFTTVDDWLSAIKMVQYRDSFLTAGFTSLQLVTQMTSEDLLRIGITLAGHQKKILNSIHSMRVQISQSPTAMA
# [4] = molecular target: T3, cGMP-dependent protein kinase 2 (Homo sapiens) (UniProt Q13237); experiment: Selectivity interaction (KinomeScan (DiscoverX)) EUB0001079a PRKG2; settings: at 1 µM
# T3 sequence (whole entry): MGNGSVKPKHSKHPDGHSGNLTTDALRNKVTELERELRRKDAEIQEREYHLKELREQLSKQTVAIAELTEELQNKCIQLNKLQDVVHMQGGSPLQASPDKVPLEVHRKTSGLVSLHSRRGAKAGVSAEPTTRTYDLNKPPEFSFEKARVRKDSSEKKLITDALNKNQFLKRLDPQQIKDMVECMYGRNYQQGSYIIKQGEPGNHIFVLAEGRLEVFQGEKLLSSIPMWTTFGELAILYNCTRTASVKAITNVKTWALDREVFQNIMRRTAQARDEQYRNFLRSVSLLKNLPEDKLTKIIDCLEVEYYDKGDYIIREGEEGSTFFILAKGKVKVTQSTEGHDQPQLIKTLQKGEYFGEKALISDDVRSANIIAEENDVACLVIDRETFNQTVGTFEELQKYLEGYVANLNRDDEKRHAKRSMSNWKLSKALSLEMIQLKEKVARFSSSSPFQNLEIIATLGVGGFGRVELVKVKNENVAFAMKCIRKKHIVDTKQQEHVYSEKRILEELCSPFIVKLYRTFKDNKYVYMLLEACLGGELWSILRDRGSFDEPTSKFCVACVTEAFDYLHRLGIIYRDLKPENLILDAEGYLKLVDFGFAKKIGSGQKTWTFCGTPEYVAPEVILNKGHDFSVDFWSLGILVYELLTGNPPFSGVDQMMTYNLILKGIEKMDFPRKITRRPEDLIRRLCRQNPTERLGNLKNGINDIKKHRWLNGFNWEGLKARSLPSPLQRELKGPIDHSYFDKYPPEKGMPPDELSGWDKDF
# [5] = molecular target: Death-associated protein kinase 3 (Homo sapiens) (UniProt O43293); experiment: Selectivity interaction (KinomeScan (DiscoverX)) EUB0000092b DAPK3; settings: at 10 µM
# [6] = molecular target: Phosphatidylinositol 4-kinase beta (Homo sapiens, UniProt Q9UBF8); experiment: Selectivity interaction (KinomeScan (DiscoverX)) EUB0000092b PI4KB; settings: at 10 µM
# [7] = molecular target: Serine/threonine-protein kinase 24 (Homo sapiens) (UniProt Q9Y6E0); experiment: Selectivity interaction (KinomeScan (DiscoverX)) EUB0000092b STK24; settings: at 10 µM
# [8] = molecular target: Tyrosine-protein kinase Lyn (Homo sapiens, UniProt P07948); experiment: Selectivity interaction (KinomeScan (DiscoverX)) EUB0000607a LYN; settings: at 10 µM
# [9] = molecular target: Phosphatidylinositol 4-phosphate 3-kinase C2 domain-containing subunit beta (Homo sapiens) (UniProt O00750); experiment: Selectivity interaction (KinomeScan (DiscoverX)) EUB0000607a PIK3C2B; settings: at 10 µM
# Sequence of Serine/threonine-protein kinase 24 (Homo sapiens) (Q9Y6E0 whole entry, looked up): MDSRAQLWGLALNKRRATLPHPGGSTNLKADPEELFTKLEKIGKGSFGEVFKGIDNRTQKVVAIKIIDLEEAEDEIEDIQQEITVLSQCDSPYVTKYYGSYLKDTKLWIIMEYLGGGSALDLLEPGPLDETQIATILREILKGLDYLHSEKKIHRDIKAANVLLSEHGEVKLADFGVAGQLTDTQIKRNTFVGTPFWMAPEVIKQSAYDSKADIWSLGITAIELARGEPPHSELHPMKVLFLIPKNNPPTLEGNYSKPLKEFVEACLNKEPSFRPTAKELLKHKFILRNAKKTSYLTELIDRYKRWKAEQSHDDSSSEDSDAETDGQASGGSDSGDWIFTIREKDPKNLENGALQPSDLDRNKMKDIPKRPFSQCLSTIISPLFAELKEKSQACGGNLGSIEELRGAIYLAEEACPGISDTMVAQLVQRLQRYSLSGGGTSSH
# Sequence of Death-associated protein kinase 3 (Homo sapiens) (O43293 whole entry, looked up): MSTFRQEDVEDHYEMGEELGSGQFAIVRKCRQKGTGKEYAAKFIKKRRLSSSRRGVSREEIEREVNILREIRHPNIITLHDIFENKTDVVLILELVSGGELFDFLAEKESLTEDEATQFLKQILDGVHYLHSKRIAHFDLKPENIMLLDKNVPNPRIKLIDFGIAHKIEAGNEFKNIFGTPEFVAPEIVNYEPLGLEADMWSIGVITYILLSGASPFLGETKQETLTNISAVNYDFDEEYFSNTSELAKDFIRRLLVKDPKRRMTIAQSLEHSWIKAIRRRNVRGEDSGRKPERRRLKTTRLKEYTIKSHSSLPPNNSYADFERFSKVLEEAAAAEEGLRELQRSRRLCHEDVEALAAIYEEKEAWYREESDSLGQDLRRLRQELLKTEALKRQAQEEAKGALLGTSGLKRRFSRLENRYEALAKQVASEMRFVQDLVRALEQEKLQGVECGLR
# Sequence of Phosphatidylinositol 4-kinase beta (Q9UBF8 2-816 limits assumed): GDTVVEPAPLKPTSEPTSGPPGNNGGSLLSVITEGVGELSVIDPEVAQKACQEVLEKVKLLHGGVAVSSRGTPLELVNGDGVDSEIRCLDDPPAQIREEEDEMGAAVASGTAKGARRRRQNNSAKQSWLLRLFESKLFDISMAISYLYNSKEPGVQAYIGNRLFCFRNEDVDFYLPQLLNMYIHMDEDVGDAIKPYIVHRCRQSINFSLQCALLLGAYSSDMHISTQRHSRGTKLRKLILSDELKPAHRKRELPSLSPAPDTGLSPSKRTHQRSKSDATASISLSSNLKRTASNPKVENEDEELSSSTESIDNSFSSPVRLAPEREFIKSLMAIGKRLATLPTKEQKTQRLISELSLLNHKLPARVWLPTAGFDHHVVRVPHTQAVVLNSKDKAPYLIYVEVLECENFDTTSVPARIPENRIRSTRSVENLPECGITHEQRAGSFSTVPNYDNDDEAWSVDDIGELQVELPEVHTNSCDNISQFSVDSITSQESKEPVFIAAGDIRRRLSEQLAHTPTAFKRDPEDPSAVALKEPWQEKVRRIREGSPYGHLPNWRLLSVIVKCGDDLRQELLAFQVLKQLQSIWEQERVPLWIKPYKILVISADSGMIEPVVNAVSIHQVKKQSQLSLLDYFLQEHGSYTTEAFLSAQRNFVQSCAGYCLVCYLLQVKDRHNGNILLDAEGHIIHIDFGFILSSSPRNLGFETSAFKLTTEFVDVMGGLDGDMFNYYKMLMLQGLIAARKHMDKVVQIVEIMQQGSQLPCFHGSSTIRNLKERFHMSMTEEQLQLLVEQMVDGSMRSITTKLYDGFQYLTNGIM
# Sequence of Myosin light chain kinase, smooth muscle (Q15746 whole entry): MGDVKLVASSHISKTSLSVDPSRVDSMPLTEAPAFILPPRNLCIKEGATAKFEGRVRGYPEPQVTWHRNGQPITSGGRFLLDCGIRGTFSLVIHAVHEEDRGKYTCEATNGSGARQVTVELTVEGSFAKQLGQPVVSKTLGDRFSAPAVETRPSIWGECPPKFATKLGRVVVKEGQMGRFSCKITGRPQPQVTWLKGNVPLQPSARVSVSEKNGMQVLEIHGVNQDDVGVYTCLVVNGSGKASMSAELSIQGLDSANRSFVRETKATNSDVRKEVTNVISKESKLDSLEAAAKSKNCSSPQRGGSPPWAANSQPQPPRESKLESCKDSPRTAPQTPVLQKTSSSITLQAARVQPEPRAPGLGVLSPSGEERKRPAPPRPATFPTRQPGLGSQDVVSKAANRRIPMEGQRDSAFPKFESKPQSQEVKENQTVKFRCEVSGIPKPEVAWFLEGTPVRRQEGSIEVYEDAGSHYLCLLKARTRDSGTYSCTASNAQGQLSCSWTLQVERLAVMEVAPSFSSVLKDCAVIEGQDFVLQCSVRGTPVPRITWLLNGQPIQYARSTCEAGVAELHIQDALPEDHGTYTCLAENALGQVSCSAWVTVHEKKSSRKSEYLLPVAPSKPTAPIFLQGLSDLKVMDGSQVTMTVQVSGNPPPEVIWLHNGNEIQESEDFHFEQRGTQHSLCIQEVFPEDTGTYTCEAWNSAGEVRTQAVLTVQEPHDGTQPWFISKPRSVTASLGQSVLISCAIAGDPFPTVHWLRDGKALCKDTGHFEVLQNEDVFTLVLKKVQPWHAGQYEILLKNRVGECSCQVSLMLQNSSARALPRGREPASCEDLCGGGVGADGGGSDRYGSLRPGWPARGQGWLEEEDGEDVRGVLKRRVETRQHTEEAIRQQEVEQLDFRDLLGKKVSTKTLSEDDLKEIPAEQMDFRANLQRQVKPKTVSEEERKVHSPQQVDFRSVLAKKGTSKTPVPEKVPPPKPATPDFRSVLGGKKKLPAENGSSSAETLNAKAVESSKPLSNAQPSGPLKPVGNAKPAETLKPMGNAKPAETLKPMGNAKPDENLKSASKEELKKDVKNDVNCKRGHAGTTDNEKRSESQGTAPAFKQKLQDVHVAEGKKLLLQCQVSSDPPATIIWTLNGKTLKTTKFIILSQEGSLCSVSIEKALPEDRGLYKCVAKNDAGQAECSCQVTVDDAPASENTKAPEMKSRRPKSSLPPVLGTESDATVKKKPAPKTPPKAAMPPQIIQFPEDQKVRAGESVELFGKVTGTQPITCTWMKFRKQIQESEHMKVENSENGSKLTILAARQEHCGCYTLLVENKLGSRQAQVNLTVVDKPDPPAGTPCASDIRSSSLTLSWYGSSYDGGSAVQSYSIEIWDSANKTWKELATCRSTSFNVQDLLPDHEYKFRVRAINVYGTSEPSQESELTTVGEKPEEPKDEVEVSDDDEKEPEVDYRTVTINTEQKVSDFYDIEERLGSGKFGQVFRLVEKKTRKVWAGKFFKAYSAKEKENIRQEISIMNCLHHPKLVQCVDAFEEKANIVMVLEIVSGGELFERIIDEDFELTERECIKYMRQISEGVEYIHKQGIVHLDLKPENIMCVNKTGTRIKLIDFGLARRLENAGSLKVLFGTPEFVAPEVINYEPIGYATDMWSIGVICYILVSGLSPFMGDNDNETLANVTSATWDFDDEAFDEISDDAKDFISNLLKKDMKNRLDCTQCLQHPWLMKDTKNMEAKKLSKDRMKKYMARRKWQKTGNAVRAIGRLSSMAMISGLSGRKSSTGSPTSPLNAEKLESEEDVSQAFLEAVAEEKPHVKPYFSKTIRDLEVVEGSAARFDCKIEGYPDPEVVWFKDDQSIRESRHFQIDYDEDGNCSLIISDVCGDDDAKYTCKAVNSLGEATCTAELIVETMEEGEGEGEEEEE
# Sequence of Tyrosine-protein kinase Lyn (P07948 2-512 limits assumed): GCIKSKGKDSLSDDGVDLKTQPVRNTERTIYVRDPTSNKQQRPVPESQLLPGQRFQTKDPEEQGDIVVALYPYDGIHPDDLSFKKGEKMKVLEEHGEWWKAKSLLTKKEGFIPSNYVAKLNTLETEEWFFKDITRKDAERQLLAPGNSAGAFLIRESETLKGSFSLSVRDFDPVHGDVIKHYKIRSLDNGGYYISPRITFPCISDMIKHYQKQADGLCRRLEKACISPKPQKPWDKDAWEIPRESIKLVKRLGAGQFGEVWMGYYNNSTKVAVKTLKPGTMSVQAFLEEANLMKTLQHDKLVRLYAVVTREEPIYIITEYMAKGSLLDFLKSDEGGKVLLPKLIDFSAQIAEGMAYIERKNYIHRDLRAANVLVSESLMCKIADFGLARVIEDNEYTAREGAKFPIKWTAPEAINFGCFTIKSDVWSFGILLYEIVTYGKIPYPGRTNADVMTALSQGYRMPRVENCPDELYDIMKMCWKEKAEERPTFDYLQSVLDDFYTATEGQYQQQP
smiles,measurement,setting,value
CC[C@@H]1[C@H](F)C(=O)N[C@@H]1COc1nccc2cc(C(N)=O)c(OC)cc12 [ZIMLOVISERTIB],% of inhibition,[1],16.9%
COCC(=O)NC/C=C/c1ccc2ncnc(Nc3ccc(Oc4ccc(C)nc4)c(C)c3)c2c1 [CP-724714],% of control,[2],100%
COc1cc(N(C)c2ccnc3ccc(C(F)(F)F)cc23)cc(OC)c1OC,% binding,[3],97%
Nc1cnc(N2CCc3cc(S(=O)(=O)Nc4c(F)cc(Cl)cc4F)cc(N4CCCC4=O)c32)nc1 [TP-020n],% of control,[4],84%
CCC(=O)N1CCN(c2ccc(-n3c(=O)ccc4cnc5ccc(-c6cnc7ccccc7c6)cc5c43)cc2C(F)(F)F)CC1,% of control,[5],82%
same,% of control,[6],96%
same,% of control,[7],100%
CNC(=O)Nc1ccc(-c2nc(N3CC4CCC(C3)O4)c3cnn(C4CCC5(CC4)OCCO5)c3n2)cc1,% of control,[8],85%
same,% of control,[9],25%

# — ChEMBL document CHEMBL5465560, “Selectivity Literature for EUbOPEN Chemogenomic Library” (2024)
